Reference: publication PMC8578635 (Nature Communications, 2021)

What was measured:
[1] = biological target: T1, TOP2A (Homo sapiens, UniProt P11388); experiment: kDNA decatenation and pBR322 relaxation assays with purified human topoisomerase II; supported by band depletion and RADAR TOP2cc assays in cells; format: biochemical
[2] = biological target: T1, TOP2A; experiment: kDNA decatenation and pBR322 relaxation assays with purified human topoisomerase II; band depletion in CHP-134 cells; format: biochemical
[3] = biological target: T1, TOP2A; experiment: kDNA decatenation and pBR322 relaxation assays with purified human topoisomerase II
[4] = biological target: topoisomerase II beta (TOP2B) (Homo sapiens, UniProt Q02880); experiment: as above; format: biochemical
Chain of topoisomerase II beta (TOP2B) (Q02880 2-1626): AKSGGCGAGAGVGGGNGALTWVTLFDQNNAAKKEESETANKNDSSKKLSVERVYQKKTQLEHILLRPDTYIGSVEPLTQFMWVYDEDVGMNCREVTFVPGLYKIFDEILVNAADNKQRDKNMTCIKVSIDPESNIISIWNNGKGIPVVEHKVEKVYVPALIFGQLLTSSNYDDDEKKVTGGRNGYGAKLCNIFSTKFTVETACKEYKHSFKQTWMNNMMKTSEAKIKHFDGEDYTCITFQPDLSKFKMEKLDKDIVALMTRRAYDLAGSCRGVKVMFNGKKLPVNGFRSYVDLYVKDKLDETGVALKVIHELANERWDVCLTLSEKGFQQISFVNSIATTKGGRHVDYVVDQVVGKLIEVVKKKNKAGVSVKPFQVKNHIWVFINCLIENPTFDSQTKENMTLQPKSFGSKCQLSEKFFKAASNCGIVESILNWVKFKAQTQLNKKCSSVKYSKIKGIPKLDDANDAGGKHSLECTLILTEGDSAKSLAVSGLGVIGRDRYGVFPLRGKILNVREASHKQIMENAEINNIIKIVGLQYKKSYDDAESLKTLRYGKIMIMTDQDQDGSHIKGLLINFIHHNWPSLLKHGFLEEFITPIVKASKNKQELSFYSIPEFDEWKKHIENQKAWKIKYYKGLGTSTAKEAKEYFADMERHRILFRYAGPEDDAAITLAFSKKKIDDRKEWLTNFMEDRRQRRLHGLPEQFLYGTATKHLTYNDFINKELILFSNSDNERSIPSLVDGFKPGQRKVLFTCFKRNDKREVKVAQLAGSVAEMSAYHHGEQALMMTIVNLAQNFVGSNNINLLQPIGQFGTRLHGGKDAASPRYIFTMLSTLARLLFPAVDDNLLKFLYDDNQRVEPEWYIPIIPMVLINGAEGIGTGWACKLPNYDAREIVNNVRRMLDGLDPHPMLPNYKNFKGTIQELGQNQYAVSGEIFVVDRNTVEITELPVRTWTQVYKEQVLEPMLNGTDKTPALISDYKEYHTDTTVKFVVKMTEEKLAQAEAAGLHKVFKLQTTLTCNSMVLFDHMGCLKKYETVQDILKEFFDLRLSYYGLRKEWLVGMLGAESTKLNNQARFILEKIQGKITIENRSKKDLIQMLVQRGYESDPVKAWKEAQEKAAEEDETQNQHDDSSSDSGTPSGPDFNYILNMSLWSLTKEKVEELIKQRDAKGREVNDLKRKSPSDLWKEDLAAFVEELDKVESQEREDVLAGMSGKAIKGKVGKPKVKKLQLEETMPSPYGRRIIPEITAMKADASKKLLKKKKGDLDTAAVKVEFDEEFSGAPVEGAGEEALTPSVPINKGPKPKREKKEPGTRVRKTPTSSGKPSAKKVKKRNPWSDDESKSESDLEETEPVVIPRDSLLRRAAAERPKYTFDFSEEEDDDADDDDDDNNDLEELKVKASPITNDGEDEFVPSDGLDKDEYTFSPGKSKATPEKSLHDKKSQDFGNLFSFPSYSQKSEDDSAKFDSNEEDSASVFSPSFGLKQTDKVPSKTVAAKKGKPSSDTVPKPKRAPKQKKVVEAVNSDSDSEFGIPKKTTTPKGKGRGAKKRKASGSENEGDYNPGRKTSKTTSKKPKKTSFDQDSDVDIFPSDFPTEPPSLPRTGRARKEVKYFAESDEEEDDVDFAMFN

T1 sequence (P11388 whole entry): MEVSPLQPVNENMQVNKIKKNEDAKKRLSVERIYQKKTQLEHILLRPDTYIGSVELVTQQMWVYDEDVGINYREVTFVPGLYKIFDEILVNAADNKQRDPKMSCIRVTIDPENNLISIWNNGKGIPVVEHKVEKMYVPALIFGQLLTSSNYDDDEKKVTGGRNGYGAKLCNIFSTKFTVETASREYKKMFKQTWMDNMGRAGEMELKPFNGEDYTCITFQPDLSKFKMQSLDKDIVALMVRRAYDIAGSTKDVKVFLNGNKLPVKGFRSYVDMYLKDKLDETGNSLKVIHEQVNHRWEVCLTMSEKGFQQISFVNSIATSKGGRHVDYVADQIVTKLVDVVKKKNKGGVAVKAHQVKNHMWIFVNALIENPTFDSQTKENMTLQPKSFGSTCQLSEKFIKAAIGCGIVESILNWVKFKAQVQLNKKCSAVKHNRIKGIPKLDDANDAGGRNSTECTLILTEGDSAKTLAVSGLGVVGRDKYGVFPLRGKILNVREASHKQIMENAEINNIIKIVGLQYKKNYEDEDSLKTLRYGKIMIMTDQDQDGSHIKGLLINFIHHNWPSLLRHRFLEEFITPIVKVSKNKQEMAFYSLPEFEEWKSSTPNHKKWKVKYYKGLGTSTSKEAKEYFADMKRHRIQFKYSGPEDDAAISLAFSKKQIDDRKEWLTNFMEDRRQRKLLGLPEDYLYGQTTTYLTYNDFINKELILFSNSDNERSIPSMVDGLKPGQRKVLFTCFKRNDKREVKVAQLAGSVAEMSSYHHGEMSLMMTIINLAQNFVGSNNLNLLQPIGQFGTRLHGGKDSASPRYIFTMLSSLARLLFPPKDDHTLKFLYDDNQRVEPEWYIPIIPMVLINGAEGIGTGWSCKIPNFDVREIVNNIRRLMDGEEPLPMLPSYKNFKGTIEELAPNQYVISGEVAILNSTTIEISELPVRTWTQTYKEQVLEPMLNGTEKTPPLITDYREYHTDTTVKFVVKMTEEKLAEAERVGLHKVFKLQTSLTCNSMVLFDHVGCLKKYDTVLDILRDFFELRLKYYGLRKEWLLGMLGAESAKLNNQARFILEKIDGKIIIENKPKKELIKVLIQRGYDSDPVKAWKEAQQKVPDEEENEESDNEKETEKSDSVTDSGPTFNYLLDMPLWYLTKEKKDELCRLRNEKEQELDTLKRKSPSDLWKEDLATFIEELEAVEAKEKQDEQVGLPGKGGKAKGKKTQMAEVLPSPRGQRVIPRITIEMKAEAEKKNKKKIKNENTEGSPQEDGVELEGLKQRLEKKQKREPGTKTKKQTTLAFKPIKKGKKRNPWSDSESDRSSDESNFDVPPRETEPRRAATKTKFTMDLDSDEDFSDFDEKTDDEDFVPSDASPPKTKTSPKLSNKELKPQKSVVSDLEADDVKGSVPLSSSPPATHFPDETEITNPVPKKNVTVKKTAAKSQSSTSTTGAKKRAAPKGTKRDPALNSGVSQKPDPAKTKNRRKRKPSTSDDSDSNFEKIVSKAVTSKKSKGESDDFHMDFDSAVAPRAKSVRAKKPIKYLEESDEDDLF

Cc1cnc(CNC(=O)c2c(=O)c3ccc(N4CCCN(C)CC4)nc3n3c2sc2ccccc23)cn1 [CX-5461]
kDNA decatenation and pBR322 relaxation assays with purified human topoisomerase [1]: CX-5461 inhibited the activity of both TOP2A and TOP2B—strikingly at concentrations substantially lower than etoposide

COc1cccc2c1C(=O)c1c(O)c3c(c(O)c1C2=O)C[C@@](O)(C(=O)CO)C[C@@H]3O[C@H]1C[C@H](N)[C@H](O)[C@H](C)O1 [doxorubicin]
kDNA decatenation and pBR322 relaxation assays with purified human topoisomerase [2]: Etoposide and doxorubicin had similar activity against both paralogs.

COc1cc([C@@H]2c3cc4c(cc3[C@@H](O[C@@H]3O[C@@H]5CO[C@@H](C)O[C@H]5[C@H](O)[C@H]3O)[C@H]3COC(=O)[C@H]23)OCO4)cc(OC)c1O [etoposide]
kDNA decatenation and pBR322 relaxation assays with purified human topoisomerase [3]: Etoposide and doxorubicin had similar activity against both paralogs.
kDNA decatenation and pBR322 relaxation assays with purified human topoisomerase [4]: Etoposide and doxorubicin had similar activity against both paralogs.
